Data from article PMC7384330 (Neuropharmacology, 2018).

Tests used:
[1] = test system: BALB/cByJ mice; test: Three-chamber social choice test after subchronic regimen; format: in vivo, mouse; conditions: subchronic
[2] = test system: BALB/cByJ mice; test: Marble-burying assay, BALB/cByJ; format: in vivo, mouse; conditions: acute IP, 50 min before test; Supplemental Fig. 3B, C
[3] = test system: rats; conditions: ref de Wied et al., 1987; cited from earlier work

## Asn-Cyt-Pro-Leu-Gly-NH2 [OT(5-9)]
[1]; 1 mg/kg IP, Supplemental Fig. 4D, E
  sociability, OT(5-9) 1 mg/kg: failed to reverse social deficits
[1]; 2.0 mg/kg IP, Supplemental Fig. 5
  sociability, OT(5-9) 2.0 mg/kg: failed to reveal prosocial efficacy
[2]
  digging responses in marble-burying assay, oxytocin metabolites: neither OT(4-9) nor OT(5-9) altered digging responses in the marble-burying assay
[3]
  potency on avoidance learning relative to oxytocin: greater potency than oxytocin itself on specific aspects of avoidance learning in rats
